Experimental data published in patent US5750754A, “Heterocyclic compounds” (Zeneca Limited, priority 1993, dated 1998).
Structures can show the parent of a compound that is named as a salt.

Legend:
[1] = target: T1, purified human platelet fibrinogen receptor (GPIIb/IIIa) (Homo sapiens, UniProt P05106+P08514); assay: Test (b): GPIIb/IIIa ELISA, inhibition of biotinylated fibrinogen binding; details: purified human platelet GPIIb/IIIa, ELISA; for IC50: read-out: Test (b): pIC50 (-log(IC50)), 50% inhibition of biotinylated fibrinogen binding to GPIIb/IIIa (converted)
T1 construct: is isolated from human platelet lysates; from tissue
T1 sequence (P08514 32-887 limits assumed): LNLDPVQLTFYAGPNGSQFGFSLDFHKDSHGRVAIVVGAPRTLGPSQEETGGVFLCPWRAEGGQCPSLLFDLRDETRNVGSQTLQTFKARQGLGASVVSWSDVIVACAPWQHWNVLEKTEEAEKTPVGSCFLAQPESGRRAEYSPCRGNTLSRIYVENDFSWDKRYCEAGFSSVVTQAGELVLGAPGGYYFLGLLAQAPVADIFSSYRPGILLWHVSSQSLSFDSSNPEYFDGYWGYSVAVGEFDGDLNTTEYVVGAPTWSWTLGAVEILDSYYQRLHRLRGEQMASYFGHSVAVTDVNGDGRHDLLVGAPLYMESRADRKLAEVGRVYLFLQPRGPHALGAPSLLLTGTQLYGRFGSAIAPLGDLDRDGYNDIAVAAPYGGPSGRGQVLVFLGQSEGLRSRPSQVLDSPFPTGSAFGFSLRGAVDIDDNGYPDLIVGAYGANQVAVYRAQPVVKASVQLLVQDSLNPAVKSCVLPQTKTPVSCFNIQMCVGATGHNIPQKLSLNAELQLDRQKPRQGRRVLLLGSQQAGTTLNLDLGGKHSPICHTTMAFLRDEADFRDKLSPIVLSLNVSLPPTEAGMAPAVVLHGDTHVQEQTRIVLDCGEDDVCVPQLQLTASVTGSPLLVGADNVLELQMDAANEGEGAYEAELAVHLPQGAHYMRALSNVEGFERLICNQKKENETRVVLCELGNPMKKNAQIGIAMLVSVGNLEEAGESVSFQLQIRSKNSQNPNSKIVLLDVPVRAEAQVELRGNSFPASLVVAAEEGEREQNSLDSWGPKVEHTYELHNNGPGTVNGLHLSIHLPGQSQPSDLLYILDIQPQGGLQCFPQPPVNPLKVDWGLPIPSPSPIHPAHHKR
T1 sequence (P08514 891-1039 limits assumed): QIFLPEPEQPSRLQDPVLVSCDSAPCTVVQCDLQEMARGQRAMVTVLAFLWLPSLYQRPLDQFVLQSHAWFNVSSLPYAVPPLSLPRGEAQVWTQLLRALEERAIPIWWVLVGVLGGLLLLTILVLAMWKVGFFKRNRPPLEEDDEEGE
T1 sequence (P05106 27-788): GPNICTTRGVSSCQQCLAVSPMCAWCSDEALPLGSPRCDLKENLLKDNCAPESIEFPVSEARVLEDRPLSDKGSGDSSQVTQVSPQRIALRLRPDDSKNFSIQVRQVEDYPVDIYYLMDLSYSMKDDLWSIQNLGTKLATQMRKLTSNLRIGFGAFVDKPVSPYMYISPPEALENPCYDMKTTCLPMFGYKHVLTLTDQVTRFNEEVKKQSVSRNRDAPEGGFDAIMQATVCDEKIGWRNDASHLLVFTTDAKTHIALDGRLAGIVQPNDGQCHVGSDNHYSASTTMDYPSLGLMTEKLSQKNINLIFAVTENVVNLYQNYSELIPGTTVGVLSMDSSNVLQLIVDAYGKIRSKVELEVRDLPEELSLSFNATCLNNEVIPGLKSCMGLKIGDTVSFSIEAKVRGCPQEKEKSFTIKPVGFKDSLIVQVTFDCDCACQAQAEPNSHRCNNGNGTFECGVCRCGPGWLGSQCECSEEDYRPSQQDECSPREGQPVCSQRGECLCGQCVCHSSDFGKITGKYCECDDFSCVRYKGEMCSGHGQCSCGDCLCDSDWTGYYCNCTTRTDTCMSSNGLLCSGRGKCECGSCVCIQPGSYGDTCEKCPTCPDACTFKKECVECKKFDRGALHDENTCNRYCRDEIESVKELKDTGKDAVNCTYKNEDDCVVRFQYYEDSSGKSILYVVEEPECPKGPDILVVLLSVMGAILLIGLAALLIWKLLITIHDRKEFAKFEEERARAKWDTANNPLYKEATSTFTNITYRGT
Procedure, shortened: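 Inhibition of biotinylated fibrinogen ([…]) binding to immobilised human platelet fibrinogen receptor, purified by KYGRGDS peptide affinity chromatography, was measured after 2 h at 30 °C. Readout: streptavidin–biotin-HRP colour with TMB at […]; value expressed as pIC50.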

[2] = target: T2, human, citrated, platelet-rich plasma (Homo sapiens, UniProt P05106+P08514); assay: Test (a): inhibition of ADP stimulated platelet aggregation (Born); assay type: cell-based; details: ADP induced aggregation of human platelet-rich plasma; for Kb: read-out: Test (a): pA2 value indicating potency of platelet aggregation inhibition (converted)
T2 construct: aggregating human, citrated, platelet-rich plasma; endogenous in cells; host or cells: human platelets in citrated platelet-rich plasma
T2 sequence (P08514 32-887 limits assumed): as the sequence (P08514 32-887 limits assumed) above
T2 sequence (P08514 891-1039 limits assumed): as the sequence (P08514 891-1039 limits assumed) above
T2 sequence (P05106 27-788): as the sequence (P05106 27-788) above
Procedure, shortened: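 pA2 calculated by comparing ADP EC50-type (50% response) values in presence and absence of compound, averaged across concentrations (generally 10-^5 M to 10-^10 M). Aggregation (Born) induced by ADP in citrated human platelet-rich plasma, giving dose-response curves.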

| SMILES | IC50 [1] [nM] | Kb [2] [nM] | Test (b): pIC50 (-log(IC50)), 50% inhibition of biotinylated fibrinogen binding to GPIIb/IIIa [1] | Test (a): pA2 value indicating potency of platelet aggregation inhibition [2] |
| --- | --- | --- | --- | --- |
| CCCCS(=O)(=O)N[C@@H](Cc1ccc(OCCCC2CCN(c3ccncc3)CC2)cc1)C(=O)O [Example 82, 2-S-(n-Butylsulphonylamino)-3-[4-[3-[1-(4-pyridyl)piperidin-4-yl]propoxy]phenyl]propionic acid] | 12.6 | 501 | – | – |
| CCCCS(=O)(=O)N[C@@H](Cc1ccc(OCCCCC2CCN(c3ccncc3)CC2)cc1)C(=O)OC [Example 83, Methyl 2-S-(butylsulphonylamino)-3-[4-[4-[1-(4-pyridyl)piperidin-4-yl]-butoxy]phenyl]propionate] | 2000 | 39800 | – | – |
| CCCCS(=O)(=O)N[C@@H](Cc1ccc(OCCCCC2CCN(c3ccncc3)CC2)cc1)C(=O)O [Example 84, 2-S-(n-Butylsulphonylamino)-3-[4-[4-[1-(4-pyridyl)piperidin-4-yl]butoxy]phenyl]propionic acid] | 20 | 63.1 | – | – |
| COC(=O)[C@H](Cc1ccc(OCCC2CCN(c3ccncc3)CC2)cc1)NS(C)(=O)=O [Example 85, Methyl 2-S-(methsulphonylamino)-3-[4-[2-[1-(4-pyridyl)piperidin-4-yl]ethoxy]phenyl]propionate] | 251 | 1580 | – | – |
| COC(=O)[C@H](Cc1ccc(OCCC2CCN(c3ccncc3)CC2)cc1)NS(=O)(=O)Cc1ccccc1 [Example 86, Methyl 2-S-(benzylsulphonylamino)-3-[4-[2-[1-(4-pyridyl)piperidin-4-yl]ethoxy]phenyl]propionate] | 200 | 3980 | – | – |
| COC(=O)[C@H](Cc1ccc(OCCC2CCN(c3ccncc3)CC2)cc1)NS(=O)(=O)c1ccc(C)cc1 [Example 87, Methyl 2-S-(4-methylphenylsulphonylamino)-3-[4-[2-[1-(4-pyridyl)piperidin-4-yl]ethoxy]phenyl]propionate] | 63.1 | 2510 | – | – |
| CS(=O)(=O)N[C@@H](Cc1ccc(OCCC2CCN(c3ccncc3)CC2)cc1)C(=O)O [Example 88, 2-S-(Methylsulphonylamino)-3-[4-[2-[1-(4-pyridyl)piperidin-4-yl]ethoxy]phenyl]propionic acid] | 2.51 | 1 | – | – |
| O=C(O)[C@H](Cc1ccc(OCCC2CCN(c3ccncc3)CC2)cc1)NS(=O)(=O)Cc1ccccc1 [Example 89, 2-S-(Benzylsulphonylamino)-3-[4-[2-[1-(4-pyridyl)piperidin-4-yl]ethoxy]phenyl]propionic acid] | 2 | 39.8 | – | – |
| Cc1ccc(S(=O)(=O)N[C@@H](Cc2ccc(OCCC3CCN(c4ccncc4)CC3)cc2)C(=O)O)cc1 [Example 90, Lithium 2-S-(4-methylphenylsulphonylamino)-3-[4-[2-[1-(4-pyridyl)piperidin-4-yl]ethoxy]phenyl]propionate] | 3.16 | 10 | – | – |
| CCCCC(=O)N[C@@H](Cc1ccc(OCCC2CCN(c3ccncc3)CC2)cc1)C(=O)OC [Example 91, Methyl 2-S-(pentanoylamino)-3-[4-[2-[1-(4-pyridyl)piperidin-4-yl]ethoxy]phenyl]propionate] | 200 | 158 | – | – |
| CCCCC(=O)N[C@@H](Cc1ccc(OCC2CCN(c3ccncc3)CC2)cc1)C(=O)OC [Example 92, Methyl 2-S-(pentanoylamino)-3-[4-[1-(4-pyridyl)piperidin-4-yl]methoxyphenyl]propionate] | 79.4 | 2000 | – | – |
| CCCCC(=O)N[C@@H](Cc1ccc(OCCC2CCN(c3ccncc3)CC2)cc1)C(=O)O [Example 93, 2-S-(Pentanoylamino)-3-[4-[2-[1-(4-pyridyl)piperidin-4-yl]ethoxy]phenyl]propionic acid] | 3.16 | 12.6 | – | – |
| O=C(N[C@@H](Cc1ccc(OCCC2CCN(c3ccncc3)CC2)cc1)C(=O)O)OCc1ccccc1 [Example 94, 2-S-(Benzyloxycarbonylamino)-3-[4-[2-[1-(4-pyridyl)piperidin-4-yl]ethoxy]phenyl]propionic acid] | 2.51 | 316 | – | – |
| CCCCS(=O)(=O)N[C@@H](Cc1ccc(OCCCN(C)c2ccncc2)cc1)C(=O)OC [Example 95, Methyl-2-S-(n-butylsulphonylamino)-3-[3-(N-methyl-N-4-pyridyl)aminopropoxy]phenylpropionate] | 7940 | 10000 | – | – |
| CCCCS(=O)(=O)N[C@@H](Cc1ccc(OCCCN(C)c2ccncc2)cc1)C(=O)O [Example 96] | 3.98 | 79.4 | – | – |
| CCCCS(=O)(=O)NC(CC(=O)OC)c1ccc(OCC2CCN(c3ccncc3)CC2)cc1 (stereo not drawn) [Example 97, Methyl 3-(n-butylsulphonylamino)-3-[4-[1-(4-pyridyl)piperidin-4-yl]-methoxyphenyl]propionate] | 3160 | 3980 | – | – |
| CCCCS(=O)(=O)NC(CC(=O)O)c1ccc(OCC2CCN(c3ccncc3)CC2)cc1 (stereo not drawn) [Example 98, 3-(n-Butylsulphonylamino)-3-[4-[1-(4-pyridyl)piperidin-4-yl]methoxyphenyl]propionic acid] | – | – | 8.5 | 7.6 |
| COC(=O)CC(NS(=O)(=O)c1ccc(C)cc1)c1ccc(OCC2CCN(c3ccncc3)CC2)cc1 (stereo not drawn) [Example 99, Methyl 3-(4-methylphenylsulphonylamino)-3-[4-[1-(4-pyridyl)piperidin-4-yl]methoxyphenyl]propionate] | 251 | 3980 | – | – |
| CCCCS(=O)(=O)N[C@H](Cc1ccc(OCC2CCN(c3ccncc3)CC2)cc1)C(=O)OC [Example 100, Methyl 2-R-(n-butylsulphonylamino)-3-[4-[1-(4-pyridyl)piperidin-4-yl]methoxyphenyl]propionate] | 3980 | 39800 | – | – |
| CCCCS(=O)(=O)N[C@H](Cc1ccc(OCC2CCN(c3ccncc3)CC2)cc1)C(=O)O [Example 101] | 31.6 | 501 | – | – |
| O=C(O)CC1(O)CCC(N2CCN(c3ccncc3)CC2)CC1 (stereo not drawn) [Example 102, cis-1-Hydroxy-4[4-(4-pyridyl)piperazin-1-yl]cyclohexaneacetic acid] | 1580 | 2000 | – | – |
| CC(C)(C)OC(=O)COC1CCCN(C(=O)CN2CCN(c3ccncc3)CC2)C1 (stereo not drawn) [Example 103, Tert-butyl 1-[2-[4-(4-pyridyl)piperazin-1in-1-yl]acetyl]piperidin-3-yloxyacetate] | 7940 | 31600 | – | – |
| O=C(O)COC1CCCN(C(=O)CN2CCN(c3ccncc3)CC2)C1 (stereo not drawn) [Example 104, 1[2-[4-(4-Pyridyl)piperazin-1yl]acetyl]piperidin-3-yloxyacetic acid] | 20000 | > 100000 | – | – |

Now from value to compound:

| IC50 [1] [nM] | Kb [2] [nM] | Test (b): pIC50 (-log(IC50)), 50% inhibition of biotinylated fibrinogen binding to GPIIb/IIIa [1] | Test (a): pA2 value indicating potency of platelet aggregation inhibition [2] | SMILES |
| --- | --- | --- | --- | --- |
| 39800 | 15800 | – | – | CC(C)(C)OC(=O)COC1CCN(C(=O)CN2CCN(c3ccncc3)CC2)CC1 [Example 106] |
| > 100000 | 31600 | – | – | COCCNC(=O)COC1CCN(C(=O)CN2CCN(c3ccncc3)CC2)CC1 [Example 107, N-2-Methoxyethyl 1-[2-[4-(4-pyridyl)piperazin-1-yl]acetyl]-piperidin-4-yloxyacetamide] |
| 1260 | 501 | – | – | O=C(O)COc1ccc(C(=O)CN2CCC(=Cc3cnccc3N3CCCC3)C2)cc1 [Example 108, 4-[2-[3-[4-(1-Pyrrolidinyl)pyridin-3yl]methylidene]pyrrolidin-1-yl]-acetylphenoxyacetic acid] |
| 631 | 316 | – | – | O=C(O)CCC1CCN(C(=O)CN2CCN(c3ccncc3)CC2)CC1 [Example 109, 3-[1-[2-[4-(4-Pyridyl)piperazin-1-yl]acetyl]piperidin-4-yl]propanoic acid] |
| – | – | 5.5 | 5.2 | O=C(O)CCC(CC1CCN(C(=O)CN2CCN(c3ccncc3)CC2)CC1)C(=O)O (stereo not drawn) [Example 112] |
| 25100 | > 100000 | – | – | CN(C)c1ccncc1COc1ccc(OCCCC(=O)O)cc1 [Example 113, 4-[4-[(4-Dimethylaminopyrid-3-yl)methoxy]phenoxy]butanoic acid] |
| 2510 | > 100000 | – | – | COC(=O)C(Cc1ccc(OCc2cnccc2N(C)C)cc1)NC(=O)OCc1ccccc1 (stereo not drawn) [Example 114, Methyl3-(4-dimethylamninopyrid-3-yl)methoxyphenoxyl-2-benzyloxycarbonylaminopropanoate] |
| > 100000 | 3980 | – | – | CCCCS(=O)(=O)NCC1CCN(C(=O)CN2CCN(c3ccncc3)CC2)CC1 [Example 115, N-[1-[2-[4-(4-Pyridiyl)piperazin-1-yl]acetyl]piperidin-4-ylmethyl]-1-butanesulphonamide] |
| 2510 | 2000 | – | – | COC(=O)COc1c(Cl)cc(C(=O)CN2CCN(c3ccncc3)CC2)cc1Cl [Example 116] |
| 3980 | 12600 | – | – | COC(=O)COc1ccc(C(=O)CN2CCN(c3ccncc3)CC2)c2ccccc12 [Example 117] |
| 398 | 200 | – | – | COC(=O)COc1ccc(C(=O)CN2CCN(c3ccncc3)CC2)c(C)c1 [Example 118, Methyl 4-[2-[4-(4-pyridyl)piperazin-1-yl]acetyl]-3-methylphenoxyacetate] |
| > 100000 | 31600 | – | – | COC(=O)COc1cccc(C(=O)CN2CCN(c3ccncc3)CC2)c1 [Example 119] |
| 100 | 1000 | – | – | O=C(O)COc1c(Cl)cc(C(=O)CN2CCN(c3ccncc3)CC2)cc1Cl [Example 123, 4-[2-[4-(4-Pyridyl)piperazin-1-yl]acetyl]-2,6-dichlorophenoxyacetic acid, dihydrochloride] |
